Experimental data published in patent US8163724B2, “Glucocorticosteroids, processes for their preparation, pharmaceutical compositions containing them and their use in therapy” (AstraZeneca AB, priority 2007, dated 2012).

target: T1, recombinant human GR (Homo sapiens, UniProt P04150); experiment: Human Glucocorticoid Receptor (GR) Assay (fluorescence polarization, Panvera/Invitrogen kit); assay type: binding; conditions: fluorescence polarization; GS Red tracer; 2 hours at room temperature; 100% control 10 μM Dexamethasone; read-out: Inhibition of GR binding, IC50
T1 construct: purchased Panvera/Invitrogen P2812 (kit P2893)
T1 sequence (P04150 1-777): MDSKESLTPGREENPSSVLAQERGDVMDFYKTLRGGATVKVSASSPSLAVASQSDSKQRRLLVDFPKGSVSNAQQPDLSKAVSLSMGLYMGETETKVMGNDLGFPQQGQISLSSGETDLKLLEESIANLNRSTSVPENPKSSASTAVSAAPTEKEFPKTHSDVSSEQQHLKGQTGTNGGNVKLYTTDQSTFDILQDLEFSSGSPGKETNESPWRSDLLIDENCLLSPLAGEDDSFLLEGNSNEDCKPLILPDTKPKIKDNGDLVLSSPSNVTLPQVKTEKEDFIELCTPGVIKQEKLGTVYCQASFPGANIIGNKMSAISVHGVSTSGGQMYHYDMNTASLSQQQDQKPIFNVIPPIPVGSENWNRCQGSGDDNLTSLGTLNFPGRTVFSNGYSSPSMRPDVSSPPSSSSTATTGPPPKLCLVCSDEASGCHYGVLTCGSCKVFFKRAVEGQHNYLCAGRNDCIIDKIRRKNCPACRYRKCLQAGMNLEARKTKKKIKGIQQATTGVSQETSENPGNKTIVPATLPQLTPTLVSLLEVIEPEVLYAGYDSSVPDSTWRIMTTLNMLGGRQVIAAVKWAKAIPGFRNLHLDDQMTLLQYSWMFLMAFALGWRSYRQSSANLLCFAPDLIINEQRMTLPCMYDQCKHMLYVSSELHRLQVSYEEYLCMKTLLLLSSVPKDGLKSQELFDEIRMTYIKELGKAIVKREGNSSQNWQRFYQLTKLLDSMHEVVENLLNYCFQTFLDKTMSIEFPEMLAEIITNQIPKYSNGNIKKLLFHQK
In short: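 Fluorescence polarization competition with recombinant GR and GS Red fluorescent ligand plus stabilizing peptide and DTT in potassium phosphate/sodium molybdate/EDTA buffer with DMSO. Incubated 2 hours at room temperature in the dark; 0% control DMSO, 100% control 10 μM dexamethasone.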

| SMILES | IC50 [nM] |
| --- | --- |
| COCCC(=O)O[C@]1(C(=O)SCF)CC[C@H]2[C@@H]3CCC4=Cc5c(cnn5-c5ccc(F)cc5)C[C@]4(C)[C@H]3[C@@H](O)C[C@@]21C [Example 63, (1R,3aS,3bS,10aR,10bS,11S,12aS)-1-{[(Fluoromethyl)thio]carbonyl}-7-(4-fluorophenyl)-11-hydroxy-10a,12a-dimethyl-1,2,3,3a,3b,4,5,7,10,10a,10b,11,12,12a-tetradecahydropcyclopenta[5,6]naphtho[1,2-f]indazol-1-yl 3-methoxypropanoate] | 3.3 |
| CSC(=O)[C@@]1(OC(=O)c2ccco2)CC[C@H]2[C@@H]3CCC4=Cc5c(cnn5-c5ccc(F)cc5)C[C@]4(C)[C@H]3[C@@H](O)C[C@@]21C [Example 64, (1R,3aS,3bS,10aR,10bS,11S,12aS)-7-(4-Fluorophenyl)-11-hydroxy-10a,12a-dimethyl-1-[(methylthio)carbonyl]-1,2,3,3a,3b,4,5,7,10,10a,10b,11,12,12a-tetradecahydropcyclopenta[5,6]naphtho[1,2-f]indazol-1-yl furan-2-carboxylate] | 5.8 |
| C[C@]12Cc3cnn(-c4ccc(F)cc4)c3C=C1CC[C@@H]1[C@@H]2[C@@H](O)C[C@@]2(C)[C@H]1CC[C@]2(OC(=O)c1ccco1)C(=O)OCC#N [Example 65, Cyanomethyl(1R,3aS,3bS,10aR,10bS,11S,12aS)-7-(4-fluorophenyl)-1-[(furan-2-ylcarbonyl)oxy]-11-hydroxy-10a,12a-dimethyl-1,2,3,3a,3b,4,5,7,10,10a,10b,11,12,12a-tetradecahydrocyclopenta[5,6]naphtho[1,2-f]indazole-1-carboxylate] | 2.6 |
| COC(=O)[C@@]1(OC(=O)c2ccco2)CC[C@H]2[C@@H]3CCC4=Cc5c(cnn5-c5ccc(F)cc5)C[C@]4(C)[C@H]3[C@@H](O)C[C@@]21C [Example 66, Methyl (1R,3aS,3bS,10aR,10bS,11S,12aS)-7-(4-fluorophenyl)-1-[(furan-2-yl-carbonyl)oxy]-11-hydroxy-10a,12a-dimethyl-1,2,3,3a,3b,4,5,7,10,10a,10b,11,12,12a-tetradecahydrocyclopenta[5,6]naphtho[1,2-f]indazole-1-carboxylate] | 3.3 |
| CCOC(=O)O[C@]1(C(=O)SCC#N)CC[C@H]2[C@@H]3CCC4=Cc5c(cnn5-c5ccc(F)cc5)C[C@]4(C)[C@H]3[C@@H](O)C[C@@]21C [Example 67, S-(Cyanomethyl)(1R,3aS,3bS,10aR,10bS,11S,12aS)-1-[(ethoxycarbonyl)oxy]-7-(4-fluorophenyl)-11-hydroxy-10a,12a-dimethyl-1,2,3,3a,3b,4,5,7,10,10a,10b,11,12,12a-tetradecahydrocyclopenta[5,6]naphtho[1,2-f]indazole-1-carbothioate] | 38 |
| CC(C)OC(=O)O[C@]1(C(=O)SCC#N)CC[C@H]2[C@@H]3CCC4=Cc5c(cnn5-c5ccc(F)cc5)C[C@]4(C)[C@H]3[C@@H](O)C[C@@]21C [Example 68, S-(Cyanomethyl)(1R,3aS,3bS,10aR,10bS,11S,12aS)-7-(4-fluorophenyl)-11-hydroxy-10a,12a-dimethyl-1-{[(1-methylethoxy)carbonyl]oxy}-1,2,3,3a,3b,4,5,7,10,10a,10b,11,12,12a-tetradecahydrocyclopenta[5,6]naphtho[1,2-f]indazole-1-carbothioate] | 12 |
| CNC(=O)[C@@]1(OC(=O)c2ccco2)CC[C@H]2[C@@H]3CCC4=Cc5c(cnn5-c5ccc(F)cc5)C[C@]4(C)[C@H]3[C@@H](O)C[C@@]21C [Example 69, (1R,3aS,3bS,10aR,10bS,11S,12aS)-7-(4-Fluorophenyl)-11-hydroxy-10a,12a-dimethyl-1-(methylcarbamoyl)-1,2,3,3a,3b,4,5,7,10,10a,10b,11,12,12a-tetradecahydropcyclopenta[5,6]naphtho[1,2-f]indazol-1-yl furan-2-carboxylate] | 3 |
| CNC(=O)[C@@]1(O)CC[C@H]2[C@@H]3CCC4=Cc5c(cnn5-c5ccc(F)cc5)C[C@]4(C)[C@H]3[C@@H](O)C[C@@]21C [Example 70, (1R,3aS,3bS,10aR,10bS,11S,12aS)-7-(4-Fluorophenyl)-1,11-dihydroxy-N,10a,12a-trimethyl-1,2,3,3a,3b,4,5,7,10,10a,10b,11,12,12a-tetradecahydrocyclopenta[5,6]naphtho[1,2-f]indazole-1-carboxamide] | 3.8 |
| C[C@]12Cc3cnn(-c4cccc(Br)c4)c3C=C1CC[C@@H]1[C@@H]2[C@@H](O)C[C@@]2(C)[C@H]1CC[C@]2(OC(=O)c1ccco1)C(=O)SCF [Example 71, (1R,3aS,10aR,10bS,11S,12aS)-7-(3-Bromophenyl)-1-{[(fluoromethyl)thio]carbonyl}-11-hydroxy-10a,12a-dimethyl-1,2,3,3a,3b,4,5,7,10,10a,10b,11,12,12a-tetradecaphydrocyclopenta[5,6]naphtho[1,2-f]indazol-1-yl furan-2-carboxylate] | 13 |
| C=Cc1cccc(-n2ncc3c2C=C2CC[C@@H]4[C@H]([C@@H](O)C[C@@]5(C)[C@H]4CC[C@]5(OC(=O)c4ccco4)C(=O)SCF)[C@@]2(C)C3)c1 [Example 72, (1R,10aR,11S,12aS)-7-(3-Ethenylphenyl)-1-{[(fluoromethyl)thio]carbonyl}-11-hydroxy-10a,12a-dimethyl-1,2,3,3a,3b,4,5,7,10a,10b,11,12,12a-tetradecahydrocyclopenta[5,6]naphtho[1,2-f]indazol-1-yl furan-2-carboxylate] | 17 |
| COCc1cc(-n2ncc3c2C=C2CC[C@@H]4[C@H]([C@@H](O)C[C@@]5(C)[C@H]4CC[C@]5(OC(=O)c4ccco4)C(=O)SCC#N)[C@@]2(C)C3)ccc1F [Example 73, (1R,3aS,3bS,10aR,10bS,11S,12aS)-1-{[(Cyanomethyl)thio]carbonyl}-7-[4-fluoro-3-(methoxymethyl)phenyl]-11-hydroxy-10a,12a-dimethyl-1,2,3,3a,3b,4,5,7,10,10a,10b,11,12,12a-tetradecahydrocyclopenta[5,6]naphtho[1,2-f]indazol-1-yl furan-2-carboxylate] | 6.4 |
| COCc1cc(-n2ncc3c2C=C2CC[C@@H]4[C@H]([C@@H](O)C[C@@]5(C)[C@H]4CC[C@]5(OC(=O)c4ccco4)C(=O)SCF)[C@@]2(C)C3)ccc1F [Example 74, (1R,3aS,3bS,10aR,10bS,11S,12aS)-7-[4-Fluoro-3-(methoxymethyl)phenyl]-1-{[(fluoromethyl)thio]carbonyl}-11-hydroxy-10a,12a-dimethyl-1,2,3,3a,3b,4,5,7,10,10a,10b,11,12,12a-tetradecahydrocyclopenta[5,6]naphtho[1,2-f]indazol-1-yl furan-2-carboxylate] | 22 |
| C[C@]12Cc3cnn(-c4ccc(F)c(CF)c4)c3C=C1CC[C@@H]1[C@@H]2[C@@H](O)C[C@@]2(C)[C@H]1CC[C@]2(OC(=O)c1ccco1)C(=O)SCC#N [Example 75, (1R,3aS,3bS,10aR,10bS,11S,12aS)-1-{[(Cyanomethyl)thio]carbonyl}-7-[4-fluoro-3-(fluoromethyl)phenyl]-11-hydroxy-10a,12a-dimethyl-1,2,3,3a,3 b,4,5,7,10,10a,10b,11,12,12a-tetradecahydrocyclopenta[5,6]naphtho[1,2-f]indazol-1-yl furan-2-carboxylate] | 7.2 |
| C[C@]12Cc3cnn(-c4ccc(F)c(CF)c4)c3C=C1CC[C@@H]1[C@@H]2[C@@H](O)C[C@@]2(C)[C@H]1CC[C@]2(OC(=O)c1ccco1)C(=O)SCF [Example 76, (1R,3aS,3bS,10aR,10bS,11S,12aS)-7-[4-Fluoro-3-(fluoromethyl)phenyl]-1-{[(fluoromethyl)thio]carbonyl}-11-hydroxy-10a,12a-dimethyl-1,2,3,3a,3b,4,5,7,10,10a,10b,11,12,12a-tetradecahydrocyclopenta[5,6]naphtho[1,2]-indazol-1-yl furan-2-carboxylate] | 35 |
| C=CCOCc1cc(-n2ncc3c2C=C2CC[C@@H]4[C@H]([C@@H](O)C[C@@]5(C)[C@H]4CC[C@]5(OC(=O)c4ccco4)C(=O)SCC#N)[C@@]2(C)C3)ccc1F [Example 77, (1R,3aS,3bS,10aR,10bS,11S,12aS)-1-{[(Cyanomethyl)thio]carbonyl}-7-{4-fluoro-3-[(prop-2-en-1-yloxy)methyl]phenyl}-11-hydroxy-10a,12a-dimethyl-1,2,3,3a,3b, 4,5,7,10,10a,10b,11,12,12a-tetradecahydrocyclopenta[5,6]naphtho[1,2-f]indazol-1-yl furan-2-carboxylate] | 22 |
